Reference: patent publication US20100041892A1, “Therapeutic agent for diabetes” (priority 2005, published 2010)

First: CCCCOc1cc(/C=C/C(=O)NS(=O)(=O)CCC(C)C)n(Cc2ccc(Cl)cc2Cl)n1 [Example 99, (2E)-3-[3-butoxy-1-(2,4-dichlorobenzyl)-1H-pyrazol-5-yl]-N-[(3-methylbutyl)sulfonyl]acrylamide]
Second: COCCOc1cc(/C=C/C(=O)NS(=O)(=O)CCC(C)C)n(Cc2ccc(Cl)cc2Cl)n1 [Example 110, (2E)-3-[1-(2,4-dichlorobenzyl)-3-(2-methoxyethoxy)-1H-pyrazol-5-yl]-N-[(3-methylbutyl)sulfonyl]acrylamide]
The melting point of the first is higher: 119 to 120 °C for the first, 110 to 114 °C for the second.

First: CCCCCS(=O)(=O)NC(=O)/C=C/c1cc(OCCCC)nn1Cc1ccc(C(F)(F)F)cc1 [Example 103, (2E)-3-{3-butoxy-1-[4-(trifluoromethyl)benzyl]-1H-pyrazol-5-yl}-N-(pentylsulfonyl)acrylamide]
Second: CCCCCS(=O)(=O)NC(=O)/C=C/c1cc(OCCCC)nn1Cc1ccc(C(F)(F)F)cc1Cl [Example 106, (2E)-3-{3-butoxy-1-[2-chloro-4-(trifluoromethyl)benzyl]-1H-pyrazol-5-yl}-N-(pentylsulfonyl)acrylamide]
The melting point of the first is higher: 159 to 160 °C for the first, 130 to 132 °C for the second.

Compared with `CCCCCS(=O)(=O)NC(=O)CCc1cc(OCc2nnc(C)o2)nn1Cc1ccc(Cl)cc1Cl` [Example 105, 3-{1-(2,4-dichlorobenzyl)-3-[(5-methyl-1,3,4-oxadiazol-2-yl)methoxy]-1H-pyrazol-5-yl}-N-(pentylsulfonyl)propanamide], `CCCCCC(=O)NS(=O)(=O)CCc1cc(OCCCC)nn1Cc1ccc(Cl)cc1Cl` [Example 128, N-({2-[3-butoxy-1-(2,4-dichlorobenzyl)-1H-pyrazol-5-yl]ethyl}sulfonyl)hexanamide] is lower in melting point: 156 to 158 °C for the first, 90 to 92 °C for the second.

First: CCCCCS(=O)(=O)NC(=O)CCc1cc(OCCCC)nn1Cc1ccc(C(F)(F)F)cc1Cl [Example 107, 3-{3-butoxy-1-[2-chloro-4-(trifluoromethyl)benzyl]-1H-pyrazol-5-yl}-N-(pentylsulfonyl)propanamide]
Second: CCCCCS(=O)(=O)NC(=O)CCCc1cc(OCCCC)nn1Cc1ccc(Cl)cc1Cl [Example 146, 4-[3-butoxy-1-(2,4-dichlorobenzyl)-1H-pyrazol-5-yl]-N-(pentylsulfonyl)butanamide]
The melting point of the first is higher: 131 to 133 °C for the first, 121 to 122 °C for the second.

First: CCCCCS(=O)(=O)NC(=O)/C=C/c1cc(OCCOC)nn1Cc1ccc(Cl)cc1Cl [Example 109, (2E)-3-[1-(2,4-dichlorobenzyl)-3-(2-methoxyethoxy)-1H-pyrazol-5-yl]-N-(pentylsulfonyl)acrylamide]
Second: CCCCOC(=O)NS(=O)(=O)/C=C/c1cc(OCCCC)nn1Cc1ccc(Cl)cc1Cl [Example 130, butyl ({(E)-2-[3-butoxy-1-(2,4-dichlorobenzyl)-1H-pyrazol-5-yl]vinyl}sulfonyl)carbamate]
The melting point of the first is lower: 82 to 85 °C for the first, 137 to 138 °C for the second.

First: CCCCCS(=O)(=O)NC(=O)/C=C/c1cc(OCC2(C)COC2)nn1Cc1ccc(C(F)(F)F)cc1Cl [Example 113, (2E)-3-{1-[2-chloro-4-(trifluoromethyl)benzyl]-3-[(3-methyloxetan-3-yl)methoxy]-1H-pyrazol-5-yl}-N-(pentylsulfonyl)acrylamide]
Second: COCCCS(=O)(=O)NC(=O)/C=C/c1cc(OCC2CC2)nn1Cc1ccc(C(F)(F)F)cc1Cl [Example 119, (2E)-3-[1-[2-chloro-4-(trifluoromethyl)benzyl]-3-(cyclopropylmethoxy)-1H-pyrazol-5-yl]-N-[(3-methoxypropyl)sulfonyl]acrylamide]
The melting point of the first is higher: 144 to 147 °C for the first, 137 to 138 °C for the second.

First: COCCCS(=O)(=O)NC(=O)/C=C/c1cc(OC(C)C)nn1Cc1ccc(C(F)(F)F)cc1Cl [Example 115, (2E)-3-{1-[2-chloro-4-(trifluoromethyl)benzyl]-3-isopropoxy-1H-pyrazol-5-yl}-N-[(3-methoxypropyl)sulfonyl]acrylamide]
Second: CC(C)CCS(=O)(=O)NC(=O)/C=C/c1cc(C2CC2)nn1Cc1ccc(C(F)(F)F)cc1Cl [Example 118, (2E)-3-{1-[2-chloro-4-(trifluoromethyl)benzyl]-3-cyclopropyl-1H-pyrazol-5-yl}-N-[(3-methylbutyl)sulfonyl]acrylamide]
The melting point of the first is lower: 138 to 139 °C for the first, 145 to 147 °C for the second.

Compared with `CCCCCS(=O)(=O)NC(=O)/C=C/c1cc(OC2CCOCC2)nn1Cc1ccc(Cl)cc1Cl` [Example 116, (2E)-3-[1-(2,4-dichlorobenzyl)-3-(tetrahydro-2H-pyran-4-yloxy)-1H-pyrazol-5-yl]-N-(pentylsulfonyl)acrylamide], `CC(C)CCS(=O)(=O)NC(=O)/C=C/c1cc(OC2CCOCC2)nn1Cc1ccc(Cl)cc1Cl` [Example 117, (2E)-3-[1-(2,4-dichlorobenzyl)-3-(tetrahydro-2H-pyran-4-yloxy)-1H-pyrazol-5-yl]-N-[(3-methylbutyl)sulfonyl]acrylamide] is lower in melting point: 154 to 157 °C for the first, 143 to 144 °C for the second.

First: COCCCS(=O)(=O)NC(=O)CCc1cc(OCC2CC2)nn1Cc1ccc(C(F)(F)F)cc1Cl [Example 120, 3-[1-[2-chloro-4-(trifluoromethyl)benzyl]-3-(cyclopropylmethoxy)-1H-pyrazol-5-yl]-N-[(3-methoxypropyl)sulfonyl]propanamide]
Second: COCCCS(=O)(=O)NC(=O)CCc1cc(C(C)(C)C)nn1Cc1ccc(C(F)(F)F)cc1Cl [Example 123, 3-{3-tert-butyl-1-[2-chloro-4-(trifluoromethyl)benzyl]-1H-pyrazol-5-yl}-N-[(3-methoxypropyl)sulfonyl]propanamide]
The melting point of the first is higher: 152 to 154 °C for the first, 149 to 150 °C for the second.

First: CCCCCS(=O)(=O)NC(=O)CCc1cc(C(C)(C)C)nn1Cc1ccc(C(F)(F)F)cc1Cl [Example 122, 3-{3-tert-butyl-1-[2-chloro-4-(trifluoromethyl)benzyl]-1H-pyrazol-5-yl}-N-(pentylsulfonyl)propanamide]
Second: CCCCCC(=O)NS(=O)(=O)CCc1cc(OC(C)C)nn1Cc1ccc(Cl)cc1Cl [Example 126, N-({2-[1-(2,4-dichlorobenzyl)-3-isopropoxy-1H-pyrazol-5-yl]ethyl}sulfonyl)hexanamide]
The melting point of the first is higher: 136 to 137 °C for the first, 107 to 108 °C for the second.

`CC(C)Oc1cc(/C=C/S(=O)(=O)NC(=O)OC(C)(C)C)n(Cc2ccc(Cl)cc2Cl)n1` [Example 124, tert-butyl ({(E)-2-[1-(2,4-dichlorobenzyl)-3-isopropoxy-1H-pyrazol-5-yl]vinyl}sulfonyl)carbamate] and `CCCCOc1cc(/C=C/S(=O)(=O)NC(=O)OC(C)(C)C)n(Cc2ccc(Cl)cc2Cl)n1` [Example 127, tert-butyl ({(E)-2-[3-butoxy-1-(2,4-dichlorobenzyl)-1H-pyrazol-5-yl]vinyl}sulfonyl)carbamate] fall in the same range of melting point: 152 to 153 °C for the first, 152 to 153 °C for the second.

First: CCCCCC(=O)NS(=O)(=O)/C=C/c1cc(OC(C)C)nn1Cc1ccc(Cl)cc1Cl [Example 125, N-({(E)-2-[1-(2,4-dichlorobenzyl)-3-isopropoxy-1H-pyrazol-5-yl]vinyl}sulfonyl)hexanamide]
Second: CCCCCC(=O)NS(=O)(=O)/C=C/c1cc(OCCCC)nn1Cc1ccc(Cl)cc1Cl [Example 131, N-({(E)-2-[3-butoxy-1-(2,4-dichlorobenzyl)-1H-pyrazol-5-yl]vinyl}sulfonyl)hexanamide]
The melting point of the first is lower: 73 to 75 °C for the first, 117 to 119 °C for the second.

`CCCCOc1cc(CCS(=O)(=O)NC(=O)OCCC)n(Cc2ccc(Cl)cc2Cl)n1` [Example 132, propyl ({2-[3-butoxy-1-(2,4-dichlorobenzyl)-1H-pyrazol-5-yl]ethyl}sulfonyl)c arbamate] and `CCCCCOC(=O)NS(=O)(=O)CCc1cc(OCCCC)nn1Cc1ccc(Cl)cc1Cl` [Example 135, pentyl ({2-[3-butoxy-1-(2,4-dichlorobenzyl)-1H-pyrazol-5-yl]ethyl}sulfonyl)carbamate] cannot be ordered by melting point: 92 to 94 °C for the first, 91 to 93 °C for the second.

First: CCCCOc1cc(CCS(=O)(=O)NC(=O)OCC(C)C)n(Cc2ccc(Cl)cc2Cl)n1 [Example 133, isobutyl ({2-[3-butoxy-1-(2,4-dichlorobenzyl)-1H-pyrazol-5-yl]ethyl}sulfonyl)carbamate]
Second: CCCCOc1cc(CCS(=O)(=O)NC(=O)OC(C)C)n(Cc2ccc(Cl)cc2Cl)n1 [Example 139, isopropyl ({2-[3-butoxy-1-(2,4-dichlorobenzyl)-1H-pyrazol-5-yl]ethyl}sulfonyl)carbamate]
The melting point of the first is lower: 114 to 116 °C for the first, 120 to 121 °C for the second.

First: CCCCOc1cc(CCS(=O)(=O)NC(=O)OCCOC)n(Cc2ccc(Cl)cc2Cl)n1 [Example 134, 2-methoxyethyl ({2-[3-butoxy-1-(2,4-dichlorobenzyl)-1H-pyrazol-5-yl]ethyl}sulfonyl)carbamate]
Second: C=CCOC(=O)NS(=O)(=O)CCc1cc(OCCCC)nn1Cc1ccc(Cl)cc1Cl [Example 137, allyl ({2-[3-butoxy-1-(2,4-dichlorobenzyl)-1H-pyrazol-5-yl]ethyl}sulfonyl)carbamate]
The melting point of the first is lower: 82 to 86 °C for the first, 94 to 95 °C for the second.

First: CCCCOc1cc(CCS(=O)(=O)NC(=O)OCc2ccccc2)n(Cc2ccc(Cl)cc2Cl)n1 [Example 136, benzyl ({2-[3-butoxy-1-(2,4-dichlorobenzyl)-1H-pyrazol-5-yl]ethyl}sulfonyl)carbamate]
Second: CCCCOc1cc(CCS(=O)(=O)NC(=O)OCC(C)(C)C)n(Cc2ccc(Cl)cc2Cl)n1 [Example 140, 2,2-dimethylpropyl ({2-[3-butoxy-1-(2,4-dichlorobenzyl)-1H-pyrazol-5-yl]ethyl}sulfonyl)carbamate]
The melting point of the first is lower: 99 to 101 °C for the first, 116 to 118 °C for the second.

Compared with `CCCCOc1cc(CCS(=O)(=O)NC(=O)OCc2ccccc2)n(Cc2ccc(Cl)cc2Cl)n1` [Example 138, benzyl ({2-[3-butoxy-1-(2,4-dichlorobenzyl)-1H-pyrazol-5-yl]ethyl}sulfonyl)carbamate], `CCCCCS(=O)(=O)NC(=O)OCc1cc(OC(C)C)nn1Cc1ccc(Cl)cc1Cl` [Example 142, [1-(2,4-dichlorobenzyl)-3-isopropoxy-1H-pyrazol-5-yl]methyl (pentylsulfonyl)carbamate] is higher in melting point: 92 to 95 °C for the first, 126 to 128 °C for the second.

`CC(C)CCS(=O)(=O)NC(=O)OCc1cc(OC(C)C)nn1Cc1ccc(Cl)cc1Cl` [Example 141, [1-(2,4-dichlorobenzyl)-3-isopropoxy-1H-pyrazol-5-yl]methyl [(3-methylbutyl)sulfonyl]carbamate] gave a melting point of 104 to 107 °C.
